The source of these data is publication PMC3207847, “Characterization of a Novel Type of HIV-1 Particle Assembly Inhibitor Using a Quantitative Luciferase-Vpr Packaging-Based Assay” (PLoS ONE, 2011).

The test system of one data set is HIV-1 VLP assembly. The data set is described as follows: microbe, parasite or virus in culture. The note with it: for IC50: Human immunodeficiency virus 1, 24 h; for SI (ratio CC50:IC50): selectivity index. The method, then: Cell culture medium was then harvested at 48 h pi, subjected to the 2-step ultracentrifugation analysis, and each gradient fraction probed for Gag polyprotein and luciferase activity, as above. […] The gradient fractions corresponding to the peak of luciferase activity were pooled, and the VLP contained in these fractions were pelleted, lysed and assayed for luciferase content.
Drug treatment was maintained for a further 24 h, and VLP released in the cell culture medium were pelleted through a sucrose cushion. The amounts of extracellular VLP recovered in the 48 h-pellets obtained in the presence of the different inhibitors were determined using the luciferase assays. After normalization to the luciferase activity determined in the corresponding cell lysates, the values of the ratio of VLP-incorporated to cell-associated luciferase activity were plotted versus the drug concentrations.
Sf9 cell culture supernatants were clarified by low-speed centrifugation, then VLP recovered using a two-step procedure comprising a sucrose-step gradient centrifugation, followed by an ultracentrifugation in linear D2O-sucrose gradient, [53]. (i) In the first step, VLP contained in the cell culture medium were pelleted through a sucrose cushion (20%, w:v, in TNE buffer; TNE: 100 mM NaCl, 10 mM Tris-HCl pH 7.4, 1 mM Na2EDTA) at 30 krpm for 1 h at 15°C in a Kontron TST55.5 rotor [12]. Pelleted VLP of step (i) were then gently resuspended in PBS (0.20–0.25 ml), and (ii) further analyzed by isopycnic ultracentrifugation in sucrose-D2O gradients, [53]. Linear gradients (10-ml total volume, 30–50%, w:v) were centrifuged for 18 h at 28 krpm in a Beckman SW41 rotor. The 50% sucrose solution was made in D2O buffered to pH 7.2 with NaOH, and the 30% sucrose solution was made in 10 mM Tris-HCl, pH 7.2, 150 mM NaCl, 5.7 mM Na2EDTA. Aliquots of 0.5 ml were collected from the top, and fractions analyzed for protein content by SDS-PAGE and immunoblotting, and by luciferase assay as described below.
Aliquots of Sf9 cells (10^6) were infected with two recombinant baculoviruses at equal multiplicity of infection (MOI of 10 PFU/cell, each). One expressed the HIV-1 Gag precursor (AcMNPV-Pr55Gag or control, p6-deleted AcMNPV-GagΔp6), the other the control Vpr protein (AcMNPV-Vpr) or the LucVpr fusion (AcMNPV-LucVpr). […] To avoid any interference with a possible effect of DMSO, DMSO was kept constant in volume in the different samples. […] Cells were harvested at 48 h pi, and extracellular VLP released in the culture medium were quantitated using luciferase assay. Membrane-enveloped VLP were pelleted and resuspended in lysis KDT buffer (KDT: 0.1 M potassium phosphate buffer, pH 7.8, 1 mM DTT, containing 0.2% Triton X100) for 30 min at 37°C with vortexing every 10 min. Luciferase activity associated with VLP was measured as previously described, using a Lumat LB-9501 luminometer (Berthold Technologies, Bad Wildbad, Germany). […] To compensate for eventual negative effects of drugs on LucVpr expression, the luciferase activity was measured in the corresponding cell lysates, obtained after lysis of the pelleted cells with KDT buffer. The results were expressed as relative light units (RLU) per µg protein. The values of the ratio of VLP-associated to intracellular luciferase activity were plotted versus the inhibitor concentration.

The next data set can be described thus: MTT cytotoxicity assay. The note with it: Spodoptera frugiperda, MTT assay, mean. The data set is classed as cell-based, Spodoptera frugiperda. The method, then:
(§1) The cellular toxicity of the different compounds was evaluated using the MTT assays. […] The selectivity index (SI) was defined as the CC50 to IC50 ratio.
(Formazan colour is commonly taken as a measure of viable cells.)

The next data set has as its system HIV-1. To be noted: read-out: mean IC50, maturation cleavage of CAp24-SP1 / virus infectivity; cited from earlier work.
Data set [1] relates to HIV-1 VLP assembly and budding. The data set is described as follows: Electron microscopy of AcMNPV-Gag-infected Sf9 cells and released particles. The data set is classed as cell-based. The note with it: 5 and 10 µg/ml for 24 h at 24 h pi. The method, then:
By contrast, control, untreated AcMNPV-Gag-infected Sf9 cells were decorated with VLP budding in abundance from the plasma membrane ( Fig. 8 , a; and also refer to [12], [28], [30], [32], [33], [53]).
Baculovirus-infected Sf9 cells were harvested at 48 h pi, pelleted, fixed with 2.5% glutaraldehyde in 0.1 M phosphate buffer, pH 7.5, post-fixed with osmium tetroxide (2% in H2O) and treated with 0.5% tannic acid solution in H2O. The specimens were dehydrated and embedded in Epon (Epon-812; Fulham, Latham, NY). Ultrathin sections were stained with 2.6% alkaline lead citrate and 0.5% uranyl acetate in 50% ethanol, and post-stained with 0.5% uranyl acetate solution in H2O [12], [28], [53]. Grids were examined under a Jeol JEM-1400 electron microscope, equiped with an ORIUS™ digitalized camera (Gatan France, 78113-Grandchamp). For statistical EM analyses, a minimum of 30 grid squares containing 10 to 20 cell sections each were examined for counting VLP budding at the cell surface, or budding in intracellular vesicular compartment.

In a further data set the test system is Sf9 cells. The data set is described as follows: MTT cytotoxicity assay. Format: cell-based, Spodoptera frugiperda. The method, then: as §1
Data set [2] has as its system HIV-1 VLP assembly and budding. To be noted: cited from earlier work.
The test system of data set [3] is HIV-1 VLP assembly and budding. To be noted: 10 µg/ml (17 µM); AcMNPV-Gag-infected Sf9 cells; cited from earlier work.
Where [4] appears, read: read-out: IC50 (µM), 50% inhibitory activity on VLP assembly, Sf9 cells coexpressing Pr55Gag and LucVpr, drug added at 24 h pi for 24 h, mean.
Setting [5] is: read-out: IC50 (µg/ml), 50% inhibitory activity on VLP assembly, Sf9 cells coexpressing Pr55Gag and LucVpr, drug added at 24 h pi for 24 h, mean ± SEM, n = 4.

Converted amounts (≈) assume the structure as drawn. Read-outs that look alike come from different tables or passages of the source.

Consider `C=C(C)[C@@H]1CC[C@]2(C(=O)O)CC[C@]3(C)[C@H](CC[C@@H]4[C@@]5(C)CC[C@H](O)C(C)(C)[C@@H]5CC[C@]43C)[C@@H]12` [BA, betulinic acid, reference compound], for which the figures for the IC50 in the data set with HIV-1 VLP assembly (setting [4]) and with HIV-1 VLP assembly (setting [5]) were 39.4 µM and 18 ± 3 µg/mL, respectively. The “SI (ratio CC50:IC50)” value in the data set on HIV-1 VLP assembly came out at 1.1. In “MTT cytotoxicity assay”, the CC50 – broadly, the concentration that lowers cell viability or growth by half – is 43.8 µM.

Consider `C=C(C)[C@@H]1CC[C@]2(C(=O)NCCN)CC[C@]3(C)C(CCC4[C@@]5(C)CC[C@H](OC(=O)CC(C)(C)C(=O)O)C(C)(C)C5CC[C@]43C)C12` (some centres unmarked) [EP-39, ethylene diamine-conjugated DSB], for which, in the data set “MTT cytotoxicity assay” (Sf9 cells), the midpoint of cytotoxicity, the CC50, lay at 120 µM. Also, the IC50 with HIV-1 is 0.016 µM.

As to `C=C(C)[C@@H]1CC[C@]2(C(=O)NC(CCCCNC(=O)OC(C)(C)C)C(=O)O)CC[C@]3(C)C(CCC4[C@@]5(C)CC[C@H](OC(=O)CC(C)(C)C(=O)O)C(C)(C)C5CC[C@]43C)C12` (some centres unmarked) [EP-47, ε-N-tert-butoxycarbonyl-lysine-conjugated DSB], the IC50 was 1.9 µM in the data set with HIV-1 VLP assembly (setting [4]) and 1 to 2 µg/mL in the data set with HIV-1 VLP assembly (setting [5]). Besides, the “IC50 (µg/ml), 50% inhibitory activity on VLP assembly” value in the data set on HIV-1 VLP assembly (Sf9 cells coexpressing Pr55Gag and LucVpr, drug added at 24 h pi for 24 h, mean ± SEM, n = 4) came to 1.6 ± 0.5 µg/mL (≈ 1.97 µM). Further, the “SI (ratio CC50:IC50)” value with HIV-1 VLP assembly was 13.0. In the data set “MTT cytotoxicity assay” (Sf9 cells), this compound showed a CC50 of 24.7 µM. In addition, the “Effect on VLP assembly and budding (EM pattern)” value in data set [1] was “net inhibitory effect on VLP assembly and budding”.

`C=C(C)[C@@H]1CC[C@]2(C(=O)NCCC(=O)O)CC[C@]3(C)C(CCC4[C@@]5(C)CC[C@H](OC(=O)CC(C)(C)C(=O)O)C(C)(C)C5CC[C@]43C)C12` (stereo partly drawn) [EP-48, beta-alanine-conjugated DSB]: the “Effect on VLP assembly (in words)” value in the data set with HIV-1 VLP assembly is given as “no specific effect on VLP assembly”. In “MTT cytotoxicity assay” (Sf9 cells), the midpoint of cytotoxicity, the CC50, lay at 4.2 µM. For the same compound, the “Cytotoxic effect (in words)” value in the data set on Sf9 cells is given as “pronounced cytotoxic effect”.

As to `C=C(C)[C@@H]1CC[C@]2(C(=O)NC(CCCCN)C(=O)O)CC[C@]3(C)C(CCC4[C@@]5(C)CC[C@H](OC(=O)CC(C)(C)C(=O)O)C(C)(C)C5CC[C@]43C)C12` (some centres unmarked) [EP-62, lysine-conjugated DSB with free lysine ε-NH2 group], in the data set on HIV-1 VLP assembly, the “Effect on VLP assembly (in words)” value is “no specific effect on VLP assembly” and the “SI (ratio CC50:IC50)” value is 0.7. Besides, in the data set with HIV-1 VLP assembly (setting [4]), the IC50 was determined as 4.8 µM. For the same compound, the IC50 in the data set with HIV-1 VLP assembly (setting [5]) was 3.4 ± 0.4 µg/mL. In the data set “MTT cytotoxicity assay” (Sf9 cells), the CC50 turned out to be 3.5 µM. Besides, the “Cytotoxic effect (in words)” value in the data set on Sf9 cells is reported as “pronounced cytotoxic effect”.

As for `C=C(C)[C@@H]1CC[C@]2(C(=O)O)CC[C@]3(C)[C@H](CC[C@@H]4[C@@]5(C)CC[C@H](OC(=O)CC(C)(C)C(=O)O)C(C)(C)[C@@H]5CC[C@]43C)[C@@H]12` [PA-457, 3-O-(3',3'-dimethylsuccinyl)-betulinic acid], in data set [2] (immuno-radiochemical assay of VLP), the IC50 was 8 to 10 µM. Moreover, the “IC50 on assembly and budding of HIV-1 VLP” value in data set [2] (insect cells expressing Pr55Gag, previous study ref 12) is 5 to 6 µg/mL. Moreover, the “Effect on VLP budding and egress” value in data set [3] was “totally abolished VLP budding and egress”.

Regarding `C=C(C)[C@@H]1CC[C@]2(C(=O)NCC(=O)O)CC[C@]3(C)C(CCC4[C@@]5(C)CC[C@H](OC(=O)CC(C)(C)C(=O)O)C(C)(C)C5CC[C@]43C)C12` (some centres unmarked) [ST-327, Glycine-conjugated DSB], the IC50 was 5.9 µM in the data set on HIV-1 VLP assembly (setting [4]) and 3.8 ± 1.6 µg/mL with HIV-1 VLP assembly (setting [5]). The “SI (ratio CC50:IC50)” value with HIV-1 VLP assembly is 5.3. The CC50 in the data set “MTT cytotoxicity assay” (Sf9 cells) is 31.1 µM. In addition, the “Effect on VLP assembly and budding (EM pattern)” value in data set [1] was “net inhibitory effect on VLP assembly and budding”.
